Values of other authors in patent US20090202668A1, “Use of a polyphenol in the treatment of the metabolic syndrome and endothelial dysfunction or other vascular sequellae” (priority 2006, published 2009).

Target: T1, CETP (Homo sapiens, UniProt P11597)
T1 sequence (P11597 18-493): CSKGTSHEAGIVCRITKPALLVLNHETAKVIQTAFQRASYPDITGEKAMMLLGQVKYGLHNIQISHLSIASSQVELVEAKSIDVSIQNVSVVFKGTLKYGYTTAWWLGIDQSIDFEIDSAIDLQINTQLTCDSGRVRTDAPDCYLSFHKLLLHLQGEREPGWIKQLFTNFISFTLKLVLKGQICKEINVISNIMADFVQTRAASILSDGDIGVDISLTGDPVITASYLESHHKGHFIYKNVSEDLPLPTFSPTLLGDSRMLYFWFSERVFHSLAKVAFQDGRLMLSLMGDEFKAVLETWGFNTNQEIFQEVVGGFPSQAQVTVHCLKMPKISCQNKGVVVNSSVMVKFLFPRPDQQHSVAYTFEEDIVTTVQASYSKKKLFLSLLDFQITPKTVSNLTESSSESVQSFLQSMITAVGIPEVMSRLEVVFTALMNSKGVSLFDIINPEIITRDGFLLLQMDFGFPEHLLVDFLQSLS

results of HDL-increasing treatment (CETP-inhibitor): poor results
Compound: CCOC(=O)N1c2ccc(C(F)(F)F)cc2[C@@H](N(Cc2cc(C(F)(F)F)cc(C(F)(F)F)c2)C(=O)OC)C[C@H]1CC [Torcetrapib]
side effects: major side effects such as death
